Experiment: recombinant barcode read abundance after kanamycin selection (control-corrected) (log10(CPM+1)); higher = more efficient recombination; sequences stand for … in AGTGCAGAGAAAATCGGCCAGTTTTCTCTGCCTGCAGTCCGCATGCCGT…AGATTTATGCAGCGGACTGCCTTTCTCCCAAAGTGATAAACCGGACAGTATCATGGACCGGTTTTCCCGGTAATCCGTATTTGCAAGGTTGGTTTCACT; site = the 11-nt target
In short: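 Duplicate cultures were plated either on chloramphenicol/ampicillin LB agar, serving as control, or on chloramphenicol/ampicillin/kanamycin with 0.1 mM IPTG. These came from a pooled E. coli library co-electroporated with a donor plasmid, each member pairing a target with an IS621 bridge RNA target-binding loop. Recombination efficiency equals averaged, control-corrected counts per million of recombinant-junction barcodes. It is listed as log10(CPM+1).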
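Note: IS621 recombinase and bridge RNA in Escherichia coli cells.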

“GGGGCATCTTGGGTTCTAACCTGTTGCTT (site GGGGCGTCTAA)” and “GGGGCATCTTGGGTTCTAACCTGTTGCTT (site GGGGCTTCTAA)” are within 0.2 log units of each other in “recombinant barcode read abundance (log10)” value: 0.0873 for the first, 0.0362 for the second.

Compared with “GGGGCCTCTTGGGTTCTAACCTGTTGCAG (site GGGGCCTCTCT)”, “GGGGCCTCTTGGGTTCTAACCTGTTGCAG (site GGTGCCTCTAT)” is lower in “recombinant barcode read abundance (log10)” value: 3.05 for the first, 0.213 for the second.

Going from “GGGGCGACTTGGGTTCTAACCTGTTGCCT (site GGGGCGACTAG)” to “GGGGCGACTTGGGTTCTAACCTGTTGCCT (site GGGGCGCCTAG)”, the “recombinant barcode read abundance (log10)” value falls from 0.358 to 0.0568.

“GGGGCGACTTGGGTTCTAACCTGTTGCCT (site GGGGCGGCTAG)” and “GGGGCGACTTGGGTTCTAACCTGTTGCCT (site GGGGCGTCTAG)” are within 0.2 log units of each other in “recombinant barcode read abundance (log10)” value: 0.13 for the first, 0.0176 for the second.

“GGGGCTTCTTGGGTTCTAACCTGTTGCAT (site GGGACTTCTAT)” and “GGGGCTTCTTGGGTTCTAACCTGTTGCAT (site GGGCCTTCTAT)” are within 0.2 log units of each other in “recombinant barcode read abundance (log10)” value: 0.158 for the first, 0.0416 for the second.

Compared with “GGGGCTTCTTGGGTTCTAACCTGTTGCAT (site GGGGCTTCTAT)”, “GGGGCTTCTTGGGTTCTAACCTGTTGCAT (site GGGTCTTCTAT)” is lower in “recombinant barcode read abundance (log10)” value: 2.07 for the first, 0.27 for the second.

First: GGGGTTCCTTGGGTTCTAACCTGTTGCCT (site GGGGTTCCTAA)
Second: GGGGTTCCTTGGGTTCTAACCTGTTGCCT (site GGGGTTCCTAC)
The “recombinant barcode read abundance (log10)” value of the first is lower: 0.223 for the first, 1.56 for the second.

Compared with “GGGGTTCCTTGGGTTCTAACCTGTTGCCT (site GGGGTTCCTAG)”, “GGGGTTCCTTGGGTTCTAACCTGTTGCCT (site GGGGTTCCTAT)” is lower in “recombinant barcode read abundance (log10)” value: 2.3 for the first, 1.42 for the second.

First: GGGGTTCCTTGGGTTCTAACCTGTTGCGT (site GGGGTTCCTAA)
Second: GGGGTTCCTTGGGTTCTAACCTGTTGCGT (site GGGGTTCCTAC)
The “recombinant barcode read abundance (log10)” value of the first is lower: 0.321 for the first, 3.32 for the second.

Compared with “GGGGTTCCTTGGGTTCTAACCTGTTGCGT (site GGGGTTCCTAG)”, “GGGGTTCCTTGGGTTCTAACCTGTTGCGT (site GGGGTTCCTAT)” is higher in “recombinant barcode read abundance (log10)” value: 1.35 for the first, 1.85 for the second.

Going from “GGGGTTCCTTGGGTTCTAACCTGTTGCTT (site GGGGTTCCTAA)” to “GGGGTTCCTTGGGTTCTAACCTGTTGCTT (site GGGGTTCCTAC)”, the “recombinant barcode read abundance (log10)” value rises from 1.52 to 1.89.

“GGGGTTCCTTGGGTTCTAACCTGTTGCTT (site GGGGTTCCTAG)” and “GGGGTTCCTTGGGTTCTAACCTGTTGCTT (site GGGGTTCCTAT)” are within 0.2 log units of each other in “recombinant barcode read abundance (log10)” value: 1.36 for the first, 1.17 for the second.

First: GGGTAATCTTGGGTTCTAACCTGTTGCCT (site GGGTAAACTAG)
Second: GGGTAATCTTGGGTTCTAACCTGTTGCCT (site GGGTAATCTAG)
The “recombinant barcode read abundance (log10)” value of the first is lower: 0.27 for the first, 0.725 for the second.

“GGGTCCACTTGGGTTCTAACCTGTTGCCT (site GGGTCCACTAA)” and “GGGTCCACTTGGGTTCTAACCTGTTGCCT (site GGGTCCACTAC)” are within 0.2 log units of each other in “recombinant barcode read abundance (log10)” value: 0.481 for the first, 0.287 for the second.

First: GGGTCCACTTGGGTTCTAACCTGTTGCCT (site GGGTCCACTAG)
Second: GGGTCCACTTGGGTTCTAACCTGTTGCCT (site GGGTCCACTAT)
The “recombinant barcode read abundance (log10)” value of the first is higher: 2.5 for the first, 0.358 for the second.

Going from “GGGTCCACTTGGGTTCTAACCTGTTGCTT (site GGGTCCACTAA)” to “GGGTCCACTTGGGTTCTAACCTGTTGCTT (site GGGTCCACTAC)”, the “recombinant barcode read abundance (log10)” value falls from 1.51 to 0.139.

Going from “GGGTCCACTTGGGTTCTAACCTGTTGCTT (site GGGTCCACTAG)” to “GGGTCCACTTGGGTTCTAACCTGTTGCTT (site GGGTCCACTAT)”, the “recombinant barcode read abundance (log10)” value falls from 1.11 to 0.714.

First: GGGTTCCCTTGGGTTCTAACCTGTTGCCT (site GGGTTCCCTAG)
Second: GGGTTCCCTTGGGTTCTAACCTGTTGCCT (site GGGTTCGCTAG)
The “recombinant barcode read abundance (log10)” value of the first is higher: 2.11 for the first, 0.031 for the second.

Going from “GGGTTCGCTTGGGTTCTAACCTGTTGCCT (site GGGTTCCCTAG)” to “GGGTTCGCTTGGGTTCTAACCTGTTGCCT (site GGGTTCGCTAG)”, the “recombinant barcode read abundance (log10)” value rises from 0.362 to 1.93.

“GGTAAGTCTTGGGTTCTAACCTGTTGCCT (site GGTAAATCTAG)” and “GGTAAGTCTTGGGTTCTAACCTGTTGCCT (site GGTAAGTCTAG)” are within 0.2 log units of each other in “recombinant barcode read abundance (log10)” value: 0.3 for the first, 0.298 for the second.

First: GGTACGACTTGGGTTCTAACCTGTTGCAG (site GGTACGACTCT)
Second: GGTACGACTTGGGTTCTAACCTGTTGCAG (site GGTACGCCTAT)
The “recombinant barcode read abundance (log10)” value of the first is higher: 1.04 for the first, 0.336 for the second.

“GGTACGCCTTGGGTTCTAACCTGTTGCGT (site GGTACGCCTAC)” and “GGTACGCCTTGGGTTCTAACCTGTTGCGT (site GGTACTCCTAC)” are within 0.2 log units of each other in “recombinant barcode read abundance (log10)” value: 0.248 for the first, 0.213 for the second.

“GGTACTACTTGGGTTCTAACCTGTTGCCA (site ACTACTACTTG)” and “GGTACTACTTGGGTTCTAACCTGTTGCCA (site GGTACTACTTG)” are within 0.2 log units of each other in “recombinant barcode read abundance (log10)” value: 0.0797 for the first, 0.152 for the second.

“GGTACTTCTTGGGTTCTAACCTGTTGCTT (site CACCACCCTCC)” and “GGTACTTCTTGGGTTCTAACCTGTTGCTT (site GGTACTTCTAA)” are within 0.2 log units of each other in “recombinant barcode read abundance (log10)” value: 0.157 for the first, 0.152 for the second.

“GGTAGGCCTTGGGTTCTAACCTGTTGCTT (site GGTAGATCTAA)” and “GGTAGGCCTTGGGTTCTAACCTGTTGCTT (site GGTAGGCCTAA)” are within 0.2 log units of each other in “recombinant barcode read abundance (log10)” value: 0.0963 for the first, 0.0588 for the second.

Going from “GGTATAGCTTGGGTTCTAACCTGTTGCCT (site GGTAAAGCTAG)” to “GGTATAGCTTGGGTTCTAACCTGTTGCCT (site GGTATAGCTAG)”, the “recombinant barcode read abundance (log10)” value rises from 0.14 to 0.827.

First: GGTCACCCTTGGGTTCTAACCTGTTGCGG (site GGTAACCCTCC)
Second: GGTCACCCTTGGGTTCTAACCTGTTGCGG (site GGTCACCCTCC)
The “recombinant barcode read abundance (log10)” value of the first is lower: 0.0652 for the first, 1.75 for the second.

“GGTCACCCTTGGGTTCTAACCTGTTGCGG (site GGTGACCCTCC)” and “GGTCACCCTTGGGTTCTAACCTGTTGCGG (site GGTTACCCTCC)” are within 0.2 log units of each other in “recombinant barcode read abundance (log10)” value: 0.0199 for the first, 0.16 for the second.

First: GGTCATCCTTGGGTTCTAACCTGTTGCCT (site GGTCATACTAG)
Second: GGTCATCCTTGGGTTCTAACCTGTTGCCT (site GGTCATCCTAG)
The “recombinant barcode read abundance (log10)” value of the first is lower: 0.127 for the first, 1.17 for the second.

“GGTCATCCTTGGGTTCTAACCTGTTGCCT (site GGTCATGCTAG)” and “GGTCATCCTTGGGTTCTAACCTGTTGCCT (site GGTCATTCTAG)” are within 0.2 log units of each other in “recombinant barcode read abundance (log10)” value: 0.0238 for the first, 0.0693 for the second.

First: GGTCCAACTTGGGTTCTAACCTGTTGCCT (site GGTCAAACTAG)
Second: GGTCCAACTTGGGTTCTAACCTGTTGCCT (site GGTCCAACTAG)
The “recombinant barcode read abundance (log10)” value of the first is lower: 0.1 for the first, 0.32 for the second.

“GGTCCAACTTGGGTTCTAACCTGTTGCCT (site GGTCGAACTAG)” and “GGTCCAACTTGGGTTCTAACCTGTTGCCT (site GGTCTAACTAG)” are within 0.2 log units of each other in “recombinant barcode read abundance (log10)” value: 0.0176 for the first, 0.159 for the second.

“GGTCCATCTTGGGTTCTAACCTGTTGCCT (site GATCCATCTAG)” and “GGTCCATCTTGGGTTCTAACCTGTTGCCT (site GCTCCATCTAG)” are within 0.2 log units of each other in “recombinant barcode read abundance (log10)” value: 0 for the first, 0.0427 for the second.
